Patent US7084155B2, “Chemokine receptor binding heterocyclic compounds” (AnorMED, priority 2000, dated 2006)

Experiments:
Format in all cases: cell-based
[1] = system: SDF-1 induced Ca flux in SUP-T1 cells; assay: Inhibition of chemokine (SDF-1) induced Ca flux measured on a FLIPR; conditions: Homo sapiens
How it was run: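 Fluo-3-loaded SUP-T1 cells (3×10^5 per well) preincubated with compound for 10 min at 37° C in HBSS/20 mM Hepes/0.2% BSA, pH 7.4, then stimulated with SDF-1. Fluorescence read on a FLIPR for 4 min after a 20-second baseline.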

[2] = system: HIV-1 NL4.3 or IIIB; assay: Inhibition of HIV-1 (NL4.3 or IIIB, CXCR4 using) replication in MT-4 cells, MTT viability; conditions: Human immunodeficiency virus 1, IIIB, MT4, concentration protecting 50% of virus-infected cells against viral cytopathicity
How it was run: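 MT-4 cells infected at MOI 0.01 (100 × CCID50) with test compound at various concentrations, cytotoxicity run in parallel on uninfected cells. Viable cells quantified by MTT colorimetry after 5 days of proliferation. EC50 is the concentration protecting 50% of infected cells from viral cytopathicity.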

[3] = system: HIV-1 BaL; assay: Inhibition of HIV-1 BaL (CCR5 using) replication in PHA-stimulated PBMC's, viral p24 antigen expression; conditions: Human immunodeficiency virus 1, BAL

Row | SMILES | inhibition at 20 µg/mL [1] | EC50 [2] | EC50 [3]
1 | Oc1ccccc1CNCc1ccc(CN(Cc2nc3ccccc3[nH]2)C2CCCc3cccnc32)cc1 (stereo not drawn) [Example 68, N-(2-hydroxyphenylmethyl)-N′-(1H-benzimidazol-2-ylmethyl)-N′-(5,6,7,8-tetrahydro-8-quinolinyl)-1,4-benzenedimethanamine] | > 20% | < 20 µg/mL | < 20 µg/mL
2 | c1ccc(CNCc2ccc(CN[C@H]3CCCC[C@H]3NCc3ccccn3)cc2)nc1 [Example 134, N-(2-pyridinylmethyl)-N′-[cis-2-[(N-pyridin-2-ylmethyl)amino]cyclohexyl]-1,4-benzenedimethanamine] | > 20% | < 20 µg/mL | < 20 µg/mL
